How the values were obtained:
Type in all cases: in vivo
[1] = tested on: growth factors and anti-inflammatory proteins; assay: Expression of growth factors and anti-inflammatory proteins in dogs given supplemental arginine; details: dietary supplementation
[2] = tested on: transient cerebral ischemia in an ovariectomized rat model; assay: Transient middle cerebral artery (tMCA) occlusion, ischemic lesion (infarct) volume by TTC staining; details: all rats, vs control diet, 60 min tMCA occlusion, 24 h reperfusion (FIG. 1)
Protocol: Animals. Female Charles Rivers Sprague-Dawley rats (250 g, Wilmington, Mass.) were acclimatized to animal facilities three days prior to surgery with a 12 hour light-dark cycle. Bilateral ovariectomy was performed 2 weeks before diet feeding began. Four weeks after the start of diet feeding, transient middle cerebral artery (tMCA) occlusion under anesthesia was performed following intraperitoneal (i.p.) injection of ketamine (60 mg/kg) and xylazine (10 mg/kg).
Diet and Hormone Administration. Fourteen to 15 rats per group were randomly assigned to one of five treatment groups. These groups were as follows: […]
All diets were fed ad libitum to the rats for four weeks. […] Also once per week, body weights and food intake were determined. […]
Middle cerebral artery occlusion and samples preparation. […] Rectal temperature was monitored and maintained between 36.5 and 37° C. with a heating pad throughout the procedure. […]
Some animals were eliminated from the study during the protocol. The number of animals quantified for lesion volume ranged from 12 to 15 per group.
Statistical methods. Results were analyzed with one-way analysis of variance (ANOVA) using Prism software(Graphpad Inc; San Diego, Calif.). The significance of differences among groups was determined by one-way ANOVA followed by Tukey's multiple comparison tests. All values were expressed as mean±SEM.

[3] = tested on: transient cerebral ischemia in an ovariectomized rat model; assay: Cerebral ischemia-induced apoptosis, DNA fragmentation by TUNEL staining after tMCA occlusion; details: mean of three brain regions, normalized to DAPI cell count, vs control diet (FIG. 3)

Structure (SMILES)	expression of growth factors and anti-inflammatory proteins [1]	effect on infarct size / mean infarct volume [2]	reduction of infarct volume ([2]; diets fed 4 weeks, E2 implant 1 week) [%]	TUNEL staining / TUNEL-positive cell counts [3]
N=C(N)NCCC[C@H](N)C(=O)O [arginine, L-arginine]	increased expression of multiple growth factors and anti-inflammatory proteins in a dose-dependent manner	–	–	–
C[C@]12CC[C@@H]3c4ccc(O)cc4CC[C@H]3[C@@H]1CC[C@@H]2O [Estradiol, 17β-estradiol]	–	reduced infarct size	68	substantial reduction in TUNEL staining

From patent publication US20070053955A1, “Compositions and methods for improving cellular survival and reducing apoptosis after ischemic episode in the brain” (NESTEC S.A., priority 2005, published 2007)
